Test results reported in patent US12485263B2, “Device for delivering an antimicrobial composition into a medical device” (ICU Medical, Inc., priority 2018, dated 2025).

How the values were obtained:
[1] = system: Gram positive bacteria, Gram negative bacteria, and fungi; assay: Kill of microbes by dissolved chlorhexidine / chlorhexidine acetate (stated, no test protocol)
[2] = 60 kilogram person; cited from earlier work

CC(=O)O.CC(=O)O.NC(=N\CCCCCC/N=C(N)/N=C(\N)Nc1ccc(Cl)cc1)/N=C(\N)Nc1ccc(Cl)cc1 [chlorhexidine acetate]
concentration that can quickly kill most microbes ([1]; Gram positive bacteria, Gram negative bacteria, and fungi): greater than 200 μg/mL | time to kill microbes ([1]; at concentration greater than 200 μg/mL, in many cases): under 1 minute | dose considered safe for direct injection into bloodstream [2]: ≥ 500 µg
